In the supplement of paper PMC10307832:

Columns and labels:
Test in all cases: relative viability (nuclei count vs DMSO), 5 days (fraction); higher = more cells survive
[1] = compound: CCOc1cc2ncc(C#N)c(Nc3ccc(OCc4ccccn4)c(Cl)c3)c2cc1NC(=O)/C=C/CN(C)C [Neratinib]
In short: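 Lung cancer cell lines were seeded into 1536-well plates, kept overnight at 37 °C and pinned with five library-drug doses (not always all listed) spaced by √10. After 5 days, nuclei were Hoechst-stained, imaged at 4× and counted with MetaXpress. Viability is treated-well nuclei over vehicle-well nuclei, taken as a median across plates. Plates needed control CV below 25% and at least one doubling.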

[2] = compound: CCOc1cc2ncc(C#N)c(Nc3ccc(OCc4ccccn4)c(Cl)c3)c2cc1NC(=O)/C=C/CN(C)C [Neratinib] + CC1(C)CCC(c2ccc(Cl)cc2)=C(CN2CCN(c3ccc(C(=O)NS(=O)(=O)c4ccc(N[C@H](CCN5CCOCC5)CSc5ccccc5)c(S(=O)(=O)C(F)(F)F)c4)cc3)CC2)C1 [Navitoclax] (partner 0.5 µM)
In short: (§1)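 Lung cancer cell lines were pin-tool dosed in 1536-well plates on the day after seeding, with either a lone drug or a fixed anchor-drug dose plus five library-drug doses (not always all listed) in √10 steps. Nuclei were counted on 4× images after 5 days. Relative viability is the ratio of treated-well to vehicle-well nuclei counts, with each value a median of duplicate plates.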

[3] = compound: CCOc1cc2ncc(C#N)c(Nc3ccc(OCc4ccccn4)c(Cl)c3)c2cc1NC(=O)/C=C/CN(C)C [Neratinib] + Cc1cc(Nc2cc(N3CCN(C)CC3)nc(Sc3ccc(NC(=O)C4CC4)cc3)n2)n[nH]1 [Tozasertib] (partner 0.1 µM)
In short: as §1

[4] = compound: CCOc1cc2ncc(C#N)c(Nc3ccc(OCc4ccccn4)c(Cl)c3)c2cc1NC(=O)/C=C/CN(C)C [Neratinib] + N=C(N)NC(=N)NCCc1ccccc1 [Phenformin] (partner 250 µM)
In short: as §1

| Cell Line | relative viability ([1]; 0.01 µM) | relative viability ([1]; 0.03162 µM) | relative viability ([1]; 0.1 µM) | relative viability ([1]; 0.3162 µM) | relative viability ([1]; 1 µM) | relative viability ([2]; first compound 0.01 µM) | relative viability ([2]; first compound 0.1 µM) | relative viability ([2]; first compound 0.3162 µM) | relative viability ([2]; first compound 1 µM) | relative viability ([3]; first compound 0.01 µM) | relative viability ([3]; first compound 0.03162 µM) | relative viability ([3]; first compound 0.1 µM) | relative viability ([3]; first compound 1 µM) | relative viability ([4]; first compound 0.01 µM) | relative viability ([4]; first compound 0.03162 µM) | relative viability ([4]; first compound 0.1 µM) | relative viability ([4]; first compound 0.3162 µM) | relative viability ([4]; first compound 1 µM) | relative viability ([2]; first compound 0.03162 µM) | relative viability ([3]; first compound 0.3162 µM) |
| --- | --- | --- | --- | --- | --- | --- | --- | --- | --- | --- | --- | --- | --- | --- | --- | --- | --- | --- | --- | --- |
| NCI-H1666 | 1 | 1.03 | 0.884 | 0.76 | 0.78 | 0.971 | 0.685 | 0.311 | 0.347 | 0.615 | 0.563 | 0.538 | 0.541 | 0.616 | 0.573 | 0.519 | 0.54 | 0.593 |  |  |
| NCI-H1734 | 1.05 | 1.05 | 0.914 | 0.929 | 0.734 | 0.902 | 0.789 | 0.818 | 0.557 | 0.231 | 0.281 | 0.168 | 0.212 | 0.428 | 0.429 | 0.382 | 0.412 | 0.32 | 1.02 | 0.266 |
| NCI-H1755 |  | 1.01 | 0.858 | 1.02 | 1.05 | 1.06 |  | 1.02 | 0.469 | 0.619 | 0.617 | 0.613 | 0.543 | 0.641 | 0.657 | 0.535 | 0.593 | 0.577 |  | 0.515 |
| NCI-H1793 | 1.11 | 1 | 0.682 | 0.749 | 0.527 | 0.757 | 0.371 | 0.352 | 0.217 | 0.317 | 0.354 | 0.293 | 0.143 | 0.392 | 0.516 | 0.281 | 0.273 | 0.255 | 0.497 | 0.176 |
| NCI-H1915 | 1.07 | 1.03 | 0.972 | 0.916 | 1.05 | 0.764 | 0.757 | 0.736 | 0.744 | 0.42 | 0.475 | 0.402 | 0.346 | 0.383 | 0.384 | 0.228 | 0.354 | 0.39 | 0.862 | 0.39 |
| NCI-H1944 | 1.18 | 0.977 | 0.865 | 0.767 | 0.569 | 1.03 | 0.871 | 0.814 | 0.677 | 0.255 | 0.248 | 0.221 | 0.16 | 0.237 | 0.202 | 0.192 | 0.176 | 0.174 | 1 | 0.218 |
| NCI-H1975 | 1.07 | 1.1 | 0.905 | 0.58 | 0.244 | 1.26 | 0.788 | 0.394 | 0.238 | 0.869 |  | 0.698 | 0.106 | 0.434 | 0.446 | 0.403 | 0.211 | 0.161 | 1.33 | 0.324 |
| NCI-H1993 | 1.03 | 0.837 | 0.719 | 0.685 | 0.731 | 0.911 | 0.815 | 0.651 | 0.574 | 0.528 | 0.594 | 0.597 | 0.593 | 0.365 | 0.523 | 0.533 | 0.626 | 0.567 | 0.986 | 0.536 |
| NCI-H2009 | 1.01 | 1.05 | 0.989 | 0.927 | 0.96 | 1.13 | 1.12 | 1.13 | 0.999 | 0.732 | 0.799 | 0.621 | 0.554 | 0.482 | 0.509 | 0.484 | 0.389 | 0.303 | 1.23 | 0.613 |
| NCI-H2023 | 0.997 | 0.824 |  | 0.881 | 0.707 | 0.987 | 0.909 | 0.943 | 0.699 | 0.389 | 0.33 | 0.292 | 0.141 | 0.434 | 0.451 | 0.362 | 0.323 | 0.298 | 1.04 | 0.211 |
| NCI-H2085 | 0.977 | 1.01 | 0.871 | 0.891 | 0.814 | 1.18 |  | 0.88 | 0.804 | 0.729 | 0.909 | 0.716 | 0.458 | 0.795 | 0.683 | 0.708 | 0.567 | 0.437 | 1.14 | 0.675 |
| NCI-H2087 | 1.15 | 0.894 | 0.829 | 0.883 | 0.644 | 1.04 |  | 1 | 0.444 | 0.239 | 0.274 | 0.197 | 0.134 | 0.493 | 0.567 | 0.391 | 0.415 | 0.234 | 0.896 | 0.193 |
| NCI-H2126 | 1.03 | 0.998 | 0.904 | 0.907 | 0.553 | 0.861 | 0.682 | 0.748 | 0.35 | 0.851 | 0.857 | 0.794 | 0.397 | 0.534 | 0.535 | 0.487 | 0.484 | 0.381 | 0.831 | 0.673 |
| NCI-H2170 | 0.995 | 0.994 | 0.62 | 0.26 | 0.24 | 0.391 | 0.274 | 0.196 | 0.184 | 0.842 | 0.684 | 0.565 | 0.183 | 0.419 | 0.418 | 0.269 | 0.268 | 0.216 | 0.377 | 0.266 |
| NCI-H2228 |  | 1.21 | 0.973 | 0.858 | 0.223 | 0.929 | 0.802 | 0.953 | 0.258 | 0.264 | 0.281 | 0.178 | 0.126 | 0.334 | 0.331 | 0.268 | 0.236 | 0.122 | 1.57 | 0.267 |
| NCI-H2347 | 1.07 | 1.08 | 0.904 | 1.08 |  | 0.819 | 0.68 | 0.786 | 0.698 | 0.539 | 0.624 |  | 0.384 | 0.416 | 0.565 |  | 0.338 | 0.244 | 0.945 | 0.541 |
